Assay results as given in patent US9611224B2 (Hoffmann-La Roche Inc., priority 2012, dated 2017).
Where a name gives a salt, the structure may show the parent alone.

These compounds were tested against BIR3 domain of XIAP (Homo sapiens (Human), UniProt P98170) (assay: TR-FRET assay for BIR3 (inhibition of binding to Peptide A)). Details: not given.
Chain of BIR3 domain of XIAP (P98170 other isoform, or with tags, fused parts or gaps): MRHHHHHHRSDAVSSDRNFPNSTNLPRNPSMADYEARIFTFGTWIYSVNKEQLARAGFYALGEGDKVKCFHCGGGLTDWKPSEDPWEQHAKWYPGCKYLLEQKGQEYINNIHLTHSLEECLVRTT
Description: TR-FRET Assay for BIR2 and BIR3
Percentage of inhibition at each concentration was determined to generate an IC50 value for each test compound.
`CN[C@@H](C)C(=O)N[C@H]1CCc2ccccc2N(Cc2c(OC)ccc3cc(C(F)(F)F)ccc23)C1=O` [Example 47l, (S)—N—[(S)-1-(2-Methoxy-6-trifluoromethyl-naphthalen-1-ylmethyl)-2-oxo-2,3,4,5-tetrahydro-1H-benzo[b]azepin-3-yl]-2-methylamino-propionamide hydrochloride] showed an IC50 of 40.4 µM.

Same assay, conditions: 6x His-tagged BIR3 domain (aa 241-356 of XIAP), 20 nM Peptide A, 10 concentrations
`CN[C@@H](C)C(=O)N[C@H]1CCc2ccccc2N(Cc2cccc3cc4ccccc4cc23)C1=O` [Example 47ee, (S)—N—((S)-1-Anthracen-1-ylmethyl-2-oxo-2,3,4,5-tetrahydro-1H-benzo[b]azepin-3-yl)-2-methylamino-propionamide hydrochloride] showed an IC50 greater than 54.8 µM.
`CN[C@@H](C)C(=O)N[C@H]1CCc2ccccc2N(Cc2cccc3c(CN4CCNCC4)cccc23)C1=O` [Example 49n, (S)-2-Methylamino-N—[(S)-2-oxo-1-(5-piperazin-1-ylmethyl-naphthalen-1-ylmethyl)-2,3,4,5-tetrahydro-1H-benzo[b]azepin-3-yl]-propionamide hydrochloride] gave an IC50 greater than 54.8 µM.
In the case of `CN[C@@H](C)C(=O)N[C@H]1CCc2ccccc2N(Cc2cc(C(F)(F)F)ccc2OC)C1=O` [Example 1c, (S)—N—[(S)-1-(2-Methoxy-5-trifluoromethyl-benzyl)-2-oxo-2,3,4,5-tetrahydro-1H-benzo[b]azepin-3-yl]-2-methylamino-propionamide hydrochloride], the IC50 is reported as greater than 54.8 µM.
In the case of `CN[C@@H](C)C(=O)N[C@H]1CCc2ccccc2N(Cc2c(OC)ccc3ccccc23)C1=O` [Example 47c, (S)—N—[(S)-1-(2-Methoxy-naphthalen-1-ylmethyl)-2-oxo-2,3,4,5-tetrahydro-1H-benzo[b]azepin-3-yl]-2-methylamino-propionamide hydrochloride], the IC50 is reported as greater than 54 µM.
For `CN[C@@H](C)C(=O)N[C@H]1CCc2ccccc2N(Cc2c(OC)ccc3cc(CN4CCNCC4)ccc23)C1=O` [Example 49r, (S)—N—[(S)-1-(2-Methoxy-6-piperazin-1-ylmethyl-naphthalen-1-ylmethyl)-2-oxo-2,3,4,5-tetrahydro-1H-benzo[b]azepin-3-yl]-2-methylamino-propionamide hydrochloride], the IC50 was greater than 54.8 µM.
`CN[C@@H](C)C(=O)N[C@H]1CCc2ccccc2N(Cc2cc(C(C)C)ccc2OC)C1=O` [Example 1o, (S)—N—[(S)-1-(5-Isopropyl-2-methoxy-benzyl)-2-oxo-2,3,4,5-tetrahydro-1H-benzo[b]azepin-3-yl]-2-methylamino-propionamide hydrochloride] was tested, and the IC50 was greater than 51.5 µM.
`CN[C@@H](C)C(=O)NC1CCc2ccc(Br)cc2N(Cc2ccccc2)C1=O` (stereo partly drawn) [Example 26, (S)—N-(1-Benzyl-8-bromo-2-oxo-2,3,4,5-tetrahydro-1H-benzo[b]azepin-3-yl)-2-methylamino-propionamide hydrochloride] gave an IC50 greater than 54.8 µM.
`CN[C@@H](C)C(=O)N[C@H]1CCc2ccccc2N(Cc2ccnc3ncccc23)C1=O` [Example 47cc, (S)-2-Methylamino-N—((S)-1-[1,8]naphthyridin-4-ylmethyl-2-oxo-2,3,4,5-tetrahydro-1H-benzo[b]azepin-3-yl)-propionamide hydrochloride] gave an IC50 greater than 54.8 µM.
Work on `CN[C@@H](C)C(=O)N[C@H]1CCc2ccccc2N(Cc2c(C)cc(C)c3ccccc23)C1=O` [Example 47bb, (S)—N—[(S)-1-(2,4-Dimethyl-naphthalen-1-ylmethyl)-2-oxo-2,3,4,5-tetrahydro-1H-benzo[b]azepin-3-yl]-2-methylamino-propionamide hydrochloride] yielded an IC50 greater than 54 µM.
With `CN[C@@H](C)C(=O)N[C@H]1CCc2ccccc2N(Cc2ccc(Cl)cc2OC)C1=O` [Example 1i, (S)—N—[(S)-1-(4-Chloro-2-methoxy-benzyl)-2-oxo-2,3,4,5-tetrahydro-1H-benzo[b]azepin-3-yl]-2-methylamino-propionamide hydrochloride] the IC50 was greater than 54.8 µM.
In the case of `CN[C@@H](C)C(=O)N[C@H]1CCc2ccccc2N(Cc2cccc3ccc(Br)cc23)C1=O` [Example 47ff, (S)—N—[(S)-1-(7-Bromo-naphthalen-1-ylmethyl)-2-oxo-2,3,4,5-tetrahydro-1H-benzo[b]azepin-3-yl]-2-methylamino-propionamide hydrochloride], the IC50 is reported as 47.5 µM.
Work on `CN[C@@H](C)C(=O)N[C@H]1CCc2ccccc2N(Cc2ccc(C)c3ccccc23)C1=O` [Example 47f, (S)-2-Methylamino-N—[(S)-1-(4-methyl-naphthalen-1-ylmethyl)-2-oxo-2,3,4,5-tetrahydro-1H-benzo[b]azepin-3-yl]-propionamide hydrochloride] yielded an IC50 greater than 54.8 µM.
`CN[C@@H](C)C(=O)N[C@H]1CCc2ccccc2N(Cc2c(OC)ccc3ccc(C(=O)OC)cc23)C1=O` [Example 52h, 7-Methoxy-8-[(S)-3-((S)-2-methylamino-propionylamino)-2-oxo-2,3,4,5-tetrahydro-benzo[b]azepin-1-ylmethyl]-naphthalene-2-carboxylic acid methyl ester hydrochloride] was tested, and the IC50 was greater than 54.8 µM.
Compound `CC[C@H](NCc1ccccc1)C(=O)N[C@H]1CCc2ccccc2N(Cc2c(OC)ccc3cc(Br)ccc23)C1=O` [Example 8, (S)-2-(Benzylamino)-N—((S)-1-((6-bromo-2-methoxynaphthalen-1-yl)methyl)-2-oxo-2,3,4,5-tetrahydro-1H-benzo[b]azepin-3-yl)butanamide] has an IC50 greater than 54.8 µM.
In the case of `CN[C@@H](C)C(=O)N[C@H]1CCc2ccccc2N(Cc2c(OC)ccc3cc(C#N)ccc23)C1=O` [Example 54d, (S)—N—[(S)-1-(6-Cyano-2-methoxy-naphthalen-1-ylmethyl)-2-oxo-2,3,4,5-tetrahydro-1H-benzo[b]azepin-3-yl]-2-methylamino-propionamide hydrochloride], the IC50 is reported as greater than 54.8 µM.
Compound `CN[C@@H](C)C(=O)N[C@H]1CCc2ccccc2N(Cc2cnco2)C1=O` [Example 2e, (S)-2-Methylamino-N—((S)-1-oxazol-5-ylmethyl-2-oxo-2,3,4,5-tetrahydro-1H-benzo[b]azepin-3-yl)-propionamide hydrochloride] has an IC50 greater than 54.8 µM.
Compound `CN[C@@H](C)C(=O)N[C@H]1CCc2ccccc2N(Cc2c(OC)ccc3cc(C(=O)O)ccc23)C1=O` [Example 51, 6-Methoxy-5-[(S)-3-((S)-2-methylamino-propionylamino)-2-oxo-2,3,4,5-tetrahydro-benzo[b]azepin-1-ylmethyl]-naphthalene-2-carboxylic acid] has an IC50 greater than 54.8 µM.
With `CN[C@@H](C)C(=O)N[C@H]1CCc2ccccc2N(Cc2cccc3c(C(=O)OC)cccc23)C1=O` [Example 52g, 5-[(S)-3-((S)-2-Methylamino-propionylamino)-2-oxo-2,3,4,5-tetrahydro-benzo[b]azepin-1-ylmethyl]-naphthalene-1-carboxylic acid methyl ester hydrochloride] the IC50 was greater than 54.8 µM.
Work on `CN[C@@H](C)C(=O)N[C@H]1CCc2ccc(OCCc3ccccc3)cc2N(Cc2ccccc2)C1=O` [Example 23, (S)—N—((S)-1-Benzyl-2-oxo-8-phenethyloxy-2,3,4,5-tetrahydro-1H-benzo[b]azepin-3-yl)-2-methylamino-propionamide hydrochloride] yielded an IC50 greater than 54 µM.
Work on `CN[C@@H](C)C(=O)N[C@H]1CCc2ccccc2N(Cc2cc(F)c(F)cc2OC)C1=O` [Example 1d, (S)—N—[(S)-1-(4,5-Difluoro-2-methoxy-benzyl)-2-oxo-2,3,4,5-tetrahydro-1H-benzo[b]azepin-3-yl]-2-methylamino-propionamide hydrochloride] yielded an IC50 greater than 54.8 µM.
`CN[C@@H](C)C(=O)N[C@H]1CCc2ccccc2N(Cc2cc(I)ccc2OC)C1=O` [Example 1n, (S)—N—[(S)-1-(5-Iodo-2-methoxy-benzyl)-2-oxo-2,3,4,5-tetrahydro-1H-benzo[b]azepin-3-yl]-2-methylamino-propionamide hydrochloride] was tested, and the IC50 was 43 µM.
With `C=Cc1ccc2c(CN3C(=O)[C@@H](NC(=O)[C@H](C)NC)CCc4ccccc43)c(OC)ccc2c1` [Example 46, (S)—N—[(S)-1-(2-Methoxy-6-vinyl-naphthalen-1-ylmethyl)-2-oxo-2,3,4,5-tetrahydro-1H-benzo[b]azepin-3-yl]-2-methylamino-propionamide hydrochloride] the IC50 was greater than 54.8 µM.
`CN[C@@H](C)C(=O)N[C@H]1CCc2ccccc2N(Cc2c(OC)ccc3c2CCCC3)C1=O` [Example 44, (S)—N—[(S)-1-(2-Methoxy-5,6,7,8-tetrahydro-naphthalen-1-ylmethyl)-2-oxo-2,3,4,5-tetrahydro-1H-benzo[b]azepin-3-yl]-2-methylamino-propionamide hydrochloride] showed an IC50 greater than 57.6 µM.
`CN[C@@H](C)C(=O)N[C@H]1CCc2ccccc2N(Cc2c(OC)ccc3ccc(C#N)cc23)C1=O` [Example 54c, (S)—N—[(S)-1-(7-Cyano-2-methoxy-naphthalen-1-ylmethyl)-2-oxo-2,3,4,5-tetrahydro-1H-benzo[b]azepin-3-yl]-2-methylamino-propionamide hydrochloride] was tested, and the IC50 was greater than 54.8 µM.
For `CN[C@@H](C)C(=O)N[C@H]1CCc2ccccc2N(Cc2c(OC)ccc3c(C(=O)OC)cccc23)C1=O` [Example 52e, 6-Methoxy-5-[(S)-3-((S)-2-methylamino-propionylamino)-2-oxo-2,3,4,5-tetrahydro-benzo[b]azepin-1-ylmethyl]-naphthalene-1-carboxylic acid methyl ester hydrochloride], the IC50 was greater than 54.8 µM.
In the case of `CN[C@@H](C)C(=O)N[C@H]1CCc2ccccc2N(Cc2c(F)c(F)c(F)c(F)c2F)C1=O` [Example 1h, (S)-2-Methylamino-N—((S)-2-oxo-1-pentafluorophenylmethyl-2,3,4,5-tetrahydro-1H-benzo[b]azepin-3-yl)-propionamide hydrochloride], the IC50 is reported as greater than 54.8 µM.
Work on `CN[C@@H](C)C(=O)N[C@H]1CCc2ccccc2N(Cc2cccnc2)C1=O` [Example 2f, (S)-2-Methylamino-N—((S)-2-oxo-1-pyridin-3-ylmethyl-2,3,4,5-tetrahydro-1H-benzo[b]azepin-3-yl)-propionamide hydrochloride] yielded an IC50 greater than 51.5 µM.
Compound `CN[C@@H](C)C(=O)N[C@H]1CCc2ccccc2N(Cc2nccs2)C1=O` [Example 2d, (S)-2-Methylamino-N—((S)-2-oxo-1-thiazol-2-ylmethyl-2,3,4,5-tetrahydro-1H-benzo[b]azepin-3-yl)-propionamide hydrochloride] has an IC50 greater than 54.8 µM.
